Laboratory results from publication PMC9617636 (Antiviral Research, 2022).

Key:
Format in all cases: cell-based
SARS-CoV-2 = experiment: Antiviral plaque assay in Vero-E6 cells; conditions: Severe acute respiratory syndrome coronavirus 2, Vero C1008, read-out: EC50 (95% CI), SARS-CoV-2 B.1.351 (Beta), Vero-E6
[1] = system: −1 PRF signal of SARS-CoV-2
B.1.1.7 SARS-CoV-2 = system: B.1.1.7 SARS-CoV-2

SMILES | EC50 (SARS-CoV-2) [µM] | -1PRF inhibition with mutated binding pocket [1] | change in the EC50s after 11 passages in presence of geneticin (B.1.1.7 SARS-CoV-2)
CN[C@@H]1[C@@H](O)[C@@H](O[C@@H]2[C@@H](O)[C@H](O[C@H]3O[C@H]([C@@H](C)O)[C@@H](O)[C@H](O)[C@H]3N)[C@@H](N)C[C@H]2N)OC[C@]1(C)O [Geneticin] | 129 | significant loss of -1PRF inhibition | did not observe any significant change in the EC50s
CCNCC1CCN(c2c(F)cc3c(=O)c(C(=O)O)cn(CC)c3c2F)C1 (stereo not shown) [Merafloxacin] |  | significant loss of -1PRF inhibition | 
